By pEC50 is commonly meant −log10 of the EC50, conventionally taken in molar units.

The target of one experiment is T1, mouse RyR2 NTR (Mus musculus, UniProt E9Q401, K30C/K441C, form not given).
T1 sequence (E9Q401 1-547 K30C/K441C): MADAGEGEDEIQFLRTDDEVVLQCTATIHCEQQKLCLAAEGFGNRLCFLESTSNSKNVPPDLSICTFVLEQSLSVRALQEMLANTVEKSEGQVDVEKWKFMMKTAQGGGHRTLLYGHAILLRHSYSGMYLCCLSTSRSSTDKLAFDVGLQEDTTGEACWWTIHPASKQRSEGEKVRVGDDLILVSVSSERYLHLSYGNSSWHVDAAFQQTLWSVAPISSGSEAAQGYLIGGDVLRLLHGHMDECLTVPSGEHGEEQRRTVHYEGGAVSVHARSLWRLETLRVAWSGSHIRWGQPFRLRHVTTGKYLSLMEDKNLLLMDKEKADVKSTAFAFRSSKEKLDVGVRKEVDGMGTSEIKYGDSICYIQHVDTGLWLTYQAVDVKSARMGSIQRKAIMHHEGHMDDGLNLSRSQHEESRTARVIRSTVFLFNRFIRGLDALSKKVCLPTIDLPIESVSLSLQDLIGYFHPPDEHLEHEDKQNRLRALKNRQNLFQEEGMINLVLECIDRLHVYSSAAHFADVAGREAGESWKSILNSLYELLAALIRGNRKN
The experiment is described as follows: FLT-FRET dose-response with AC-NTR biosensor. It is filed as binding. The text has this:
The NTR of mouse RyR2 (residues 1–547) was cloned and expressed as previously described ([27]). The DNA construct contains a 6×His tag, a maltose-binding protein (MBP) tag, and a tobacco etch virus (TEV) protease cleavage site. The seven native solvent-exposed cysteine residues were substituted with alanine residues, and two constructs were engineered with Cys substitutions at surface residues R383 and K441 (in the B and C domains, respectively; termed BC) and at K30 and K441 (in the A and C domains, respectively; termed AC) for labeling with spectroscopic probes such as appropriate donor–acceptor fluorophores for FRET (for the purpose of this report, these are considered the WT forms of AC and BC). A variant of the BC construct corresponding to the disease-associated mutant (R420Q) was also prepared. For this site-directed mutagenesis work, we used the QuikChange (Stratagene) and Phusion High-Fidelity PCR (Thermo Fisher Scientific) kits. The WT-NTR, R420Q-NTR, AC- and BC-NTR, AC- and BC-R420Q-NTR protein constructs were expressed in Escherichia coli Rosetta (DE3) pLacI cells at 18 °C and purified with a protocol adapted from previously published work ([26]). An amylose column was first applied after the cells were lysed by ultrasonication. The protein in the elution was then cleaved using TEV protease. The cleaved crude protein went through the second amylose column to separate from the MBP and then followed by a Superdex S-200 size exclusion column in a buffer consisting of 250 mM KCl, 10 mM HEPES, and 14 mM β-mercaptoethanol (pH 7.4). The NTR protein (3 μM) was then incubated in 10 mM HEPES, 250 mM KCl (pH 7.4, 2 h, 21 °C) with the fluorescent probes Alexa Fluor 488 maleimide (AF488, donor; 40 μM) and Alexa Fluor 568 maleimide (AF568, acceptor; 60 μM). The maleimide of the dye reacts with the thiols the Cys residues engineered into NTR, forming a covalently labeled protein. The Alexa dyes were added last to the reaction mixture, from 10 mM DMSO stock solutions. This reaction is not selective to one site (K30C or K441C), and we anticipate that there is a mixed population with K30C or K441C labeled with either AF488 (donor) or AF568 (acceptor). We focused on maximizing the fraction containing donor–acceptor pairs, thus maximizing FRET efficiency and the precision for detecting a change in structure as an indication that a compound interacts with the NTR biosensor. The labeling efficiency was determined by comparing the molar concentration of the bound dye, determined from UV-Vis absorbance, to the protein concentration, determined from gel densitometry. Essentially complete labeling was confirmed from electrospray ionization mass spectrometry. CD spectra of the WT-NTR and mutant R420Q-NTR constructs before and after labeling were recorded using a JASCO J-815 CD spectrometer (JASCO), confirming similar folding (Fig. S1).
The 1536-well assay plates were prepared as described in our previous reports ([21]). The LOPAC (Sigma-Aldrich) collection received in 96-well plates was reformatted into 384-well polypropylene intermediate plates (Greiner Bio-One) using a multichannel liquid handler, BioMek FX (Beckman Coulter), then transferred to 384-well Echo Qualified source plates (Labcyte Inc). Assay plates were prepared as previously described ([20]). On screening days, these plates were thawed out and were loaded with labeled NTR (5 μl, 20 nM final concentration) using a Multidrop Combi automated sample dispenser.
HTS measurements were conducted in a prototype top-read FLT plate reader (FLT-PR, Fluorescence Innovations, Inc), which reads each 1536-well plate in ∼3 min ([63], [64]). AF488 donor fluorescence was excited with a 473 nm microchip laser from Concepts Research Corporation, and the emission signal was split into two channels by a dichroic mirror and acquired with 517 ± 10 nm (channel 1) and 535 ± 7 nm band-pass filters (channel 2) (Semrock). […]

Experiment [1] addresses T2, RyR1 (Sus scrofa, UniProt P16960).
T2 construct: from tissue; host or cells: porcine longissimus dorsi muscle, heavy SR vesicles
The experiment is described as follows: [3H]ryanodine binding to skeletal SR (HSR) vesicles. It is filed as biochemical, pig. The following applies: for pEC50: EC50, [3H]ryanodine binding, skeletal HSR, Table S4. On the procedure: (§1) Crude sarcoplasmic reticulum membrane vesicles were isolated from porcine longissimus dorsi muscle and porcine cardiac left ventricle tissue by differential centrifugation of homogenized tissue, as established previously ([65]). Skeletal heavy SR (HSR) vesicles, which are enriched with RyR1, were isolated by fractionation of crude skeletal SR vesicles using a discontinuous sucrose gradient, in accordance with our published work ([65]). All vesicles were flash-frozen and stored at −80 °C.
(§2) In 96-well plates, skeletal SR membranes (HSR, 1 mg/ml) and cardiac SR membranes (CSR, 3 mg/ml) were preincubated with 1% DMSO or hit compound for 30 min at 22 °C in a solution containing 150 mM KCl, 5 mM GSH, 1 μg/ml Aprotinin/Leupeptin, 1 mM EGTA, and 65 μM or 1.02 mM CaCl2 (as determined by MaxChelator to yield 30 nM or 30 μM of free Ca^2+, respectively), 0.1 mg/ml of BSA, and 20 mM K-PIPES (pH 7.0). Nonspecific [^3H]ryanodine binding to SR was assessed by addition of 40 μM nonradioactively labeled ryanodine. Maximal [^3H]ryanodine binding was assessed by addition of 5 mM adenylyl-imidodiphosphate (AMP-PNP), and in the case of CSR, 20 mM caffeine was added. These control samples were each loaded over four wells per plate. Binding of [^3H]ryanodine (7.5 and 10 nM for CSR and HSR, respectively) was determined following a 3 h incubation at 37 °C and filtration through grade GF/B glass microfiber filters (Brandel Inc) using a Brandel Harvester. In 4 ml of Ecolite scintillation cocktail (MP biomedicals), [^3H]ryanodine retained on the filter was counted using a Beckman LS6000 scintillation counter.

The target of another experiment is T3, RyR2 (Sus scrofa, UniProt A0A5G2R1W3).
T3 construct: from tissue; host or cells: porcine cardiac left ventricle, crude SR vesicles
Briefly: [3H]ryanodine binding to cardiac SR (CSR) vesicles. In kind it is biochemical, pig. The method, then:
as §1, §2

Another experiment relates to α2-adrenergic receptors. Set-up: method as in PMID 7969082. The following applies: cited from earlier work.
For experiment [2], the target named is T4, RyR1 (Rattus norvegicus, UniProt F1LMY4).
T4 construct: from tissue; host or cells: Wistar rat extensor digitorum longus (EDL), mechanically skinned single fibres
Briefly: t-tubule Ca2+ measurement of RyR1 leak in skinned skeletal muscle fibers. In kind it is cell-based. The following applies: 10 μM FA or 1 mM tetracaine, [Ca2+]cyto 200 nM. The method, then: All experimental methods using rodents were approved by the Animal Ethics Committees at The University of Queensland and were performed in accordance with the relevant guidelines and regulations. Five-month-old Wistar rats (UQ Biological Resources) were euthanized by asphyxiation via CO2 exposure, and the extensor digitorum longus (EDL) was rapidly excised. Once dissected, muscles were pinned to Sylgard set in a Petri dish containing paraffin oil.
Bundles of fibers were isolated and exposed to an internal solution containing rhod-5N, as described previously ([47]). After 15 min incubation, single skeletal muscle fibers were mechanically skinned and mounted in a custom-made chamber. […] For tracking Ca^2+ movements across the t-system membrane, images were continuously recorded in xyt mode with an aspect ratio of 256 × 512, with the long aspect of the image parallel with that of the preparation. Temporal resolution of imaging in this mode where the fluorescence signal was within the borders of the fiber was 0.8 s.
T-system rhod-5N fluorescence was converted to [Ca^2+]t-sys as previously described ([47]). To determine the effect of RyR modulators on the RyR Ca^2+ leak, isolated mechanically skinned fibers were continuously imaged as described above, to obtain a record of t-system rhod-5N fluorescence changes over time as the cytoplasmic solution bathing the fiber was changed. […]

The subject of experiment [3] is rat skeletal muscle fibers. Briefly: Electrically evoked Ca2+ transients in skinned skeletal muscle fibers. It is filed as cell-based. Particulars: 10 μM FA or 1 mM tetracaine, 1 Hz. The source says:
Mechanically skinned fibers were isolated, mounted in a custom chamber, and bathed in a resting physiological solution containing rhod-2, as previously described ([21]). The Ca^2+-sensitive dye rhod-2 was used to track cytosolic Ca^2+ transients when exposed to electrical stimulation. Field pulses at 1 Hz frequency and 4 ms in duration were applied across platinum electrodes parallel to the long axis of the fiber. Imaging for electrical stimulation experiments was in xt mode, at a rate of 2 ms.line^−1. DMSO vehicle (0.01%), FA (10 μM), and tetracaine were added to the physiological solution. Each treatment was applied precisely at the seventh successive Ca^2+ transient.

pEC50: −log10 of the molar value.

T2 sequence (P16960 whole entry): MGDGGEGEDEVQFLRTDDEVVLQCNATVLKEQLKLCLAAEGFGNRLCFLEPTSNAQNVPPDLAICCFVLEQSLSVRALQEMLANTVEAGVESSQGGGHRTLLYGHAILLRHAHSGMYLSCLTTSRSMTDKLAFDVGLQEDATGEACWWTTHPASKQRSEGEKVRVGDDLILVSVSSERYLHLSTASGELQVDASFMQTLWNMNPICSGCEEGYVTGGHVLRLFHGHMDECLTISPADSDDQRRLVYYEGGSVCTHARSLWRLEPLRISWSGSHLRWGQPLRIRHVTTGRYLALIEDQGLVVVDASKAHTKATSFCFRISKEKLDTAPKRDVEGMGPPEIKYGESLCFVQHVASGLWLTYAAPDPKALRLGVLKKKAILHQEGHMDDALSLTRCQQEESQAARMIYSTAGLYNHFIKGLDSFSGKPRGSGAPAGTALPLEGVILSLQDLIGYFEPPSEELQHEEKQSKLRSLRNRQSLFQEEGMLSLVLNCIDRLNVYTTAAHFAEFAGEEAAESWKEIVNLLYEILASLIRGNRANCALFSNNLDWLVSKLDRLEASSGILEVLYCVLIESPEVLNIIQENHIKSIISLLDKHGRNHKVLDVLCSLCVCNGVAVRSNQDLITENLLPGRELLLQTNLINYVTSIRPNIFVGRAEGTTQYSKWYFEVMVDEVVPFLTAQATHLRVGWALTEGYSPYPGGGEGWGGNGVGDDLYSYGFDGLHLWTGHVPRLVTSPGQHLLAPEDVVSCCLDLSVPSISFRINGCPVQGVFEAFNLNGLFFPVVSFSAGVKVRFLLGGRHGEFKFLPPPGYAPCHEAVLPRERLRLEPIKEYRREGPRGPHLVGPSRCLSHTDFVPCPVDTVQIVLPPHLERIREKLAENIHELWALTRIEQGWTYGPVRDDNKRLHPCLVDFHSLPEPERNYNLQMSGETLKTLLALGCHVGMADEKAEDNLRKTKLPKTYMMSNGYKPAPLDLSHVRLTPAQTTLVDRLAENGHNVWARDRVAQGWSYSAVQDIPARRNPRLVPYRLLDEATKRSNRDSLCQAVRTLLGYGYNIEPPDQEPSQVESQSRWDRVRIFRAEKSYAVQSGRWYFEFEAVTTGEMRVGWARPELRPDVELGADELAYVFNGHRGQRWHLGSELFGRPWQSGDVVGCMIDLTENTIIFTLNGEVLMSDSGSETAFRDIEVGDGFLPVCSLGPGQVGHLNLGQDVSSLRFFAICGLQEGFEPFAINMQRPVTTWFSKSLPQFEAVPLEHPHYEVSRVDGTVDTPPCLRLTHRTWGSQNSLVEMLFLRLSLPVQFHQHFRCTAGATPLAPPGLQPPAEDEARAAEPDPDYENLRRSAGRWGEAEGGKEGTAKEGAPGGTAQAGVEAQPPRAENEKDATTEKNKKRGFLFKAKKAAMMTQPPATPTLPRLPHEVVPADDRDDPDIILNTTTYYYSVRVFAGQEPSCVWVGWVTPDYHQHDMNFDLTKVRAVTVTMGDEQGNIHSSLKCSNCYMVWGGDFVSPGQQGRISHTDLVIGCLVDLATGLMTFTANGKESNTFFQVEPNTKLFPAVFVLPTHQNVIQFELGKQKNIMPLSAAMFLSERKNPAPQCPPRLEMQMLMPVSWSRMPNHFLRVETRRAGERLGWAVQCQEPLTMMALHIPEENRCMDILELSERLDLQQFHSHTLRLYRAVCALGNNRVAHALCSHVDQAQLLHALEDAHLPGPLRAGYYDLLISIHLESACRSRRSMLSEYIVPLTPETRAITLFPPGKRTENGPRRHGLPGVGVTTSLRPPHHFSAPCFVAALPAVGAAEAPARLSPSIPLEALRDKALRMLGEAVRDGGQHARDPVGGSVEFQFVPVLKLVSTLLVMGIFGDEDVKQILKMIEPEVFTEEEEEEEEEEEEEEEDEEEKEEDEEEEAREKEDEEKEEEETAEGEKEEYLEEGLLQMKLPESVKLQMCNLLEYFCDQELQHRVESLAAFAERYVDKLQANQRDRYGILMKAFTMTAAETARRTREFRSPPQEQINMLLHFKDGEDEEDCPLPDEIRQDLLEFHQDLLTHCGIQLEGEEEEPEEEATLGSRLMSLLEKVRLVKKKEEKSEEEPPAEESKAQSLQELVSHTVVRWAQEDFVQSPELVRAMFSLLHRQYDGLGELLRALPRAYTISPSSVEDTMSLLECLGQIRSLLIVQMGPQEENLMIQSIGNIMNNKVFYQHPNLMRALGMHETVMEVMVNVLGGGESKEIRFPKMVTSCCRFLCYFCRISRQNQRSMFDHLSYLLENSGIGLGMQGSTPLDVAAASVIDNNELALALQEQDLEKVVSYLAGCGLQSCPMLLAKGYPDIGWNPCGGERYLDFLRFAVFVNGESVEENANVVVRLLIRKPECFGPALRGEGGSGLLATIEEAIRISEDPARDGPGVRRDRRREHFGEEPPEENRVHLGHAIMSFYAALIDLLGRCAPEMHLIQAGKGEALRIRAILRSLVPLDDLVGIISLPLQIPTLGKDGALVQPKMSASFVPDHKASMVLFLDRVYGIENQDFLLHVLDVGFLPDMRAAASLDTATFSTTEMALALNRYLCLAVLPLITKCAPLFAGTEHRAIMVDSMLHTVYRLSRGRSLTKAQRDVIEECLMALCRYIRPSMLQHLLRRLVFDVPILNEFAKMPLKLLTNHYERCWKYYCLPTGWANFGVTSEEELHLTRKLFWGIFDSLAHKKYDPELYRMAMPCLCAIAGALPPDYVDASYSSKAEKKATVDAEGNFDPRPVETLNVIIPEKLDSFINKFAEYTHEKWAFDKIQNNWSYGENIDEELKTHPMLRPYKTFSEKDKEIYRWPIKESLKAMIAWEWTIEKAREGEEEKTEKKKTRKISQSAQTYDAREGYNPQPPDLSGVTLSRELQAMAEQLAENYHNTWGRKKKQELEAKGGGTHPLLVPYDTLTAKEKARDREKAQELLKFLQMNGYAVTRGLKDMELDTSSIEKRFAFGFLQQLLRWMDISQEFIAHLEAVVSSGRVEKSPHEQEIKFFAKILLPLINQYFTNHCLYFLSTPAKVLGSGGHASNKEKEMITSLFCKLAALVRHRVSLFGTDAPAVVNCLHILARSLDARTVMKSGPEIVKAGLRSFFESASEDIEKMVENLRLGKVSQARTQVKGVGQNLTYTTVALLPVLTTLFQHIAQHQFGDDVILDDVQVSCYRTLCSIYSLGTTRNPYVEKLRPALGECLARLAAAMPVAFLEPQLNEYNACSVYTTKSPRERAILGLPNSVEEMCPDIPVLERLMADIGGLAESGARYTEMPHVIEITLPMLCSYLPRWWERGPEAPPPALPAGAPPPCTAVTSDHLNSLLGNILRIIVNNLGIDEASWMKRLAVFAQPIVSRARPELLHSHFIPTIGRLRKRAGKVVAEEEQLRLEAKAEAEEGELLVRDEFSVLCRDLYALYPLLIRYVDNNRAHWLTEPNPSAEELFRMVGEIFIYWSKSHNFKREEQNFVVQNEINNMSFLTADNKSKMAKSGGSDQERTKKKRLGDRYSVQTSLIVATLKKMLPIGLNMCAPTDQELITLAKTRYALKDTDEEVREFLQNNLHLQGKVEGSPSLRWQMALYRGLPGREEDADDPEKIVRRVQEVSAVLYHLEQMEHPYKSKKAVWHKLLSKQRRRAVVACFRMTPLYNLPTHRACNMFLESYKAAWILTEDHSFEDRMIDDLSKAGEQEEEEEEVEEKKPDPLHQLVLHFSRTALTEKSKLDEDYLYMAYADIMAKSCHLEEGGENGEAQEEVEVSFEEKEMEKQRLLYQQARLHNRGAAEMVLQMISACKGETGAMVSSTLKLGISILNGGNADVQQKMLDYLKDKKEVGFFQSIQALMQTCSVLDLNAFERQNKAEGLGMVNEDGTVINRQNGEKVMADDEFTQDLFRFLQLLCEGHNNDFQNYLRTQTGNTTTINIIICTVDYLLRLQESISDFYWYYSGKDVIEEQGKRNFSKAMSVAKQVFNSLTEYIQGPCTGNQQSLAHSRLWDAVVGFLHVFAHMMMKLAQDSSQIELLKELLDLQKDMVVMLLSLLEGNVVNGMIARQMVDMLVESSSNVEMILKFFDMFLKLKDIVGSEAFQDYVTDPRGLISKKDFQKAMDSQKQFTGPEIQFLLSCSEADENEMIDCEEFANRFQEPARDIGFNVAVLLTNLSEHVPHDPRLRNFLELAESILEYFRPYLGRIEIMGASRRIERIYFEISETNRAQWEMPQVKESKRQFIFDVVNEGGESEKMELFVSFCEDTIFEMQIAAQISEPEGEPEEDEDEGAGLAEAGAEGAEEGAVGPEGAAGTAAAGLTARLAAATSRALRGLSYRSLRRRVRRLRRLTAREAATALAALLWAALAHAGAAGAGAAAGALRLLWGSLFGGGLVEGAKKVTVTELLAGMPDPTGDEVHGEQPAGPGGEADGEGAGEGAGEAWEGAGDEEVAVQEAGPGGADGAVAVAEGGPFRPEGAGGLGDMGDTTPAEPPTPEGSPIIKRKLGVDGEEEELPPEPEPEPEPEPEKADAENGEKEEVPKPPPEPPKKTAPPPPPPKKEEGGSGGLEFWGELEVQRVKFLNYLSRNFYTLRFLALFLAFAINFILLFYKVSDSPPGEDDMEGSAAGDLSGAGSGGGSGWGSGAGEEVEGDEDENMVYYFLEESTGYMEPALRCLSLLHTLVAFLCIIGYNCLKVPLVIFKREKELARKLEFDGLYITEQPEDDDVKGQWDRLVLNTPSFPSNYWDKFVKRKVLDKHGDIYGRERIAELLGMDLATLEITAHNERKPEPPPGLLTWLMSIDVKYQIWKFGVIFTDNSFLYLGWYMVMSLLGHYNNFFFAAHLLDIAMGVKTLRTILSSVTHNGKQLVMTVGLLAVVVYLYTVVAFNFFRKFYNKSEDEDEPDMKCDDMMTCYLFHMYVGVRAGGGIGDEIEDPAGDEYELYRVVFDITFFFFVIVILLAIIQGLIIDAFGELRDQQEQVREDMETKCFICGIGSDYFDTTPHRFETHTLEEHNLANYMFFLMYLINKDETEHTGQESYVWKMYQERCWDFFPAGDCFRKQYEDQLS

Turning to `C[C@H](N)[C@H](O)c1ccc(O)c(O)c1` [corbadrine, 4-[(1R,2S)-2-amino-1-hydroxypropyl]benzene-1,2-diol], at mouse RyR2 NTR (AC-NTR biosensor, 0 to 100 μM, CPNQ/corbadrine decrease FLT, FA/tacrolimus increase FLT), the ΔFLT result is recorded as “≈ 0.35 ns”. In addition, the “EC50 relative to CPNQ (fold higher)” value at mouse RyR2 NTR (FRET dose-response) is recorded as ~3 fold. Moreover, the pEC50 was 5.44 on mouse RyR2 NTR (read-out: EC50, FRET dose-response, AC-NTR biosensor, Hill fit, Table S4); 7.70 at RyR1 [1] ([Ca2+] 30 nM); 4.82 at RyR1 [1] ([Ca2+], 30 µM); 8.00 at RyR2. The “maximum inhibitory effect on [3H]ryanodine binding” value on RyR1 [1] (skeletal SR, 30 nM Ca2+) is reported as ~70%. Further, the “effect on [3H]ryanodine binding to RyR1” value on RyR1 [1] (skeletal SR, 30 μM Ca2+) is reported as “strongly increased”. The “effect on [3H]ryanodine binding to RyR2” value at RyR2 (cardiac SR, 30 μM Ca2+) is “slight activation at high concentrations”. Further, the “binding affinity for α2-adrenergic receptors” value in the experiment with α2-adrenergic receptors is on record as “very high binding affinity”.

Consider `CCCCNc1ccc(C(=O)OCCN(C)C)cc1` [tetracaine], for which the “steady-state [Ca2+]t-sys (RyR1 leak)” value on RyR1 [2] is “full RyR inhibition”. In experiment [3], the “electrically induced Ca2+ transient amplitude” value is listed as “significantly decreased”.

Source of the values: PMC8689225, “Cardiac ryanodine receptor N-terminal region biosensors identify novel inhibitors via FRET-based high-throughput screening” (The Journal of Biological Chemistry, 2021).
